Experiments:
[1] = tested on: STZ-treated NOD/Scid-(IL-2Rγ-null) mice; assay: Multiple low-dose STZ model in immune-deficient NOD/Scid-(IL-2Rγ-null) mice; format: in vivo, mouse; details: multiple low-dose STZ (data not shown for si-eIF5A)
Protocol: To test the role of eIF5A in cytokine-mediated islet dysfunction, efforts were made to identify a mouse model of islet inflammation. The multiple low dose streptozotocin (STZ) model, in which mice are subjected to five daily intraperitoneal doses (at 55 mg/kg body weight) of STZ, is considered to provoke local islet inflammation and cytokine release, in part through the recruitment of CD11c+ dendritic cells that release pro-inflammatory cytokines in the area of STZ-induced cellular destruction (27 and 28).
As noted, low-dose STZ-induced islet dysfunction involves at least two mechanisms: an inflammatory mechanism that is dependent upon cytokine release from immune cells and a direct toxic mechanism on the islet itself. […] Next, islets from 3 C57BL/6J mice per group 24 h after the initial STZ treatment were isolated and pooled and their iNOS content determined by immunoblot. […]
Studies in vivo: Daily STZ injections to groups of 10 week-old C57BL/6J and NOD/Scid-(IL-2Rγ-null) mice proceeded as described previously (30) at a dose of 55 mg STZ per kg mouse weight for 5 days. […] Serum was analyzed using a Luminex system (Millipore) and a mouse cytokine/chemokines Panel 1 mutliplex kit (Millipore).

eIF5A-Hyp = assay: New hypusine formation (3H-spermidine incorporation) in INS-1 (832/13) cells; format: cell-based, rat; details: GC7 125 μM overnight
Description: eIF5A1 and eIF5A2 are the only proteins known to contain the unique amino acid hypusine at position 50. Hypusine is formed as a posttranslational modification of residue Lys50 in a reaction requiring spermidine and catalyzed by the sequential actions of the enzymes deoxyhypusine synthase (DHS) and deoxyhypusine hydroxylase (DOHH) (Chen, K Y, and Liu, A Y. Biochemistry and function of hypusine formation on eukaryotic initiation factor 5A. Biol Signals. 1997; 6(3):105-109). […] To further investigate the mechanism of eIF5A-regulated translation of Nos2, studies were performed following overnight incubation of cells with mimosine (an inhibitor of DOHH) and GC7 (an inhibitor of DHS). […] Similar data using GC7 were obtained in primary mouse islets (data not shown) and in human islets (FIGS. 5F and 5G). […]
Measurement of hvpusination: Approximately 100 islets or 1×10^6 INS-1 cells per condition were incubated with 1.5 μCi ^3H-spermidine (Perkin Elmer) in the presence of 1 mM aminoguanidine. […] Gels were visualized by fluorography, and bands were quantitated using Kodak Molecular Imaging Software v. […]

Nos2 mRNA = assay: Nuclear export of Nos2 mRNA, subcellular fractionation of cytokine-treated INS-1 cells; format: cell-based, rat; details: cytokine-treated; GC7 100 μM overnight or leptomycin B 20 ng/ml 3 h
Protocol: Subcellular fractionation studies: Nuclear and cytoplasmic fractions of 1×10^6 cytokine-treated INS-1 cells exposed to vehicle, leptomycin B (20 ng/ml), or GC7 (100 μM) were prepared using the method of Dignam, et al. (76). Total RNA was isolated from nuclear and cytoplasmic fractions using the RNeasy® RNA isolation kit (Qiagen).
Quantitative RT-PCR: Five micrograms of total RNA from islets or INS-1 cells were reverse-transcribed as detailed previously (77). cDNA was subjected to quantitative PCR using SYBR Green-based technology and published primers for mouse Ins1/2 pre-mRNA (78) and QuantiTech® primers (Qiagen) for all other mouse genes. The Assay on Demand® kit (Applied Biosystems) was used to amplify rat genes in INS-1 cells and human genes in human islets. Thermal cycling was performed according to manufacturer's instructions, and the identity of each PCR product was verified by automated sequencing. All samples were corrected for total input RNA as quantitated by an Experion® (Bio-Rad) bioanalyzer. All data represent the average of triplicate determinations from at least 3 independent experiments.

Row | Molecule | protection against glucose intolerance [1] | new hypusine formation in INS-1 (832/13) (eIF5A-Hyp) | distribution of mRNAs between nuclear and cytoplasmic fractions (Nos2 mRNA)
1 | 5′-AACGGAAUGACUUCCAGCUGA-3′ (siSTABLE modification, further chemistry not given here) [si-eIF5A] | did not protect against glucose intolerance | – | –
2 | NCCCCCCCN=C(N)N [GC7] | – | effectively inhibits new hypusine formation | relative nuclear retention of Nos2 mRNA

From US20120196918A1, “PREVENTING ISLET INFLAMMATION AND DYSFUNCTION AND MAINTAINING PROPER GLUCOSE LEVELS BY CONTROLLING eIF5A AND ITS HYPUSINATION” (priority 2009, published 2012)
